Results published in ChEMBL document CHEMBL3407397, “Effect of size and N-terminal residue characteristics on bacterial cell penetration and antibacterial activity of the proline-rich peptide Bac7” (J Med Chem, 2015).
In brackets after ≈: the same amount, converted by molar mass. Residues, ends and D or L forms follow the SMILES beside them. *: point of attachment. X1 = F[B-]1(F)n2c(ccc2*)C=C2C=CC=[N+]21

Assays:
[1] = system: Escherichia coli; assay: Drug uptake in O-antigen lacking LPS containing wild type Escherichia coli BW25113 at 1 uM up to 3.5 hrs in presence of trypan blue quencher; type: ADME, organism-based; conditions: in vivo
[2] = system: Escherichia coli; assay: Drug uptake in delta-waaG deletion mutant containing Escherichia coli BW25113 at 4 uM up to 3.5 hrs in presence of trypan blue quencher; type: ADME, organism-based; conditions: in vivo
[3] = system: Escherichia coli; assay: Drug uptake in Escherichia coli ATCC 25922 assessed as mean fluorescence intensity using BODIPY-labeled compound at 0.25 to 4 uM incubated for 10 mins by flow cytometry; type: ADME, organism-based; conditions: in vivo
[4] = system: Escherichia coli; assay: Antimicrobial activity against Escherichia coli HB101 incubated for 18 hrs at 37 degC by broth microdilution method; type: functional; conditions: HB101, 18 h
[5] = system: Escherichia coli; assay: Drug uptake in Escherichia coli ATCC 25922 assessed as mean fluorescence intensity using BODIPY-labeled compound at 0.25 to 4 uM incubated for 60 mins by flow cytometry; type: ADME, organism-based; conditions: in vivo, 1 h
[6] = system: Escherichia coli; assay: Drug uptake in Escherichia coli ATCC 25922 assessed as mean fluorescence intensity using BODIPY-labeled compound at 0.25 to 4 uM incubated for 60 mins in presence of trypan blue quencher by flow cytometry; type: ADME, organism-based; conditions: in vivo, 1 h
[7] = system: Escherichia coli; assay: Antimicrobial activity against Escherichia coli ATCC 25922 incubated for 18 hrs at 37 degC by broth microdilution method; type: functional; conditions: ATCC 25922, 18 h
[8] = system: Escherichia coli; assay: Drug uptake in Escherichia coli ATCC 25922 assessed as mean fluorescence intensity using BODIPY-labeled compound at 0.25 uM incubated for 10 mins by confocal microscopy; type: ADME, organism-based; conditions: in vivo
[9] = system: Escherichia coli; assay: Drug uptake in Escherichia coli ATCC 25922 assessed as mean fluorescence intensity using BODIPY-labeled compound at 0.25 to 4 uM incubated for 10 mins in presence of trypan blue quencher by flow cytometry; type: ADME, organism-based; conditions: in vivo

Drug uptake [1] | Drug uptake [2] | Drug uptake [3] | MIC [4] | Drug uptake [5] | Drug uptake [6] | MIC [7] | Drug uptake [8] | Drug uptake [9] | SMILES
Active | Active |  |  |  |  |  |  |  | CC[C@H](C)[C@H](N)C(=O)N[C@@H](CCCNC(=N)N)C(=O)N1CCC[C@H]1C(=O)N[C@@H](CCCNC(=N)N)C(=O)N1CCC[C@H]1C(=O)N1CCC[C@H]1C(=O)N[C@@H](CCCNC(=N)N)C(=O)N[C@@H](CC(C)C)C(=O)N1CCC[C@H]1C(=O)N[C@@H](CCCNC(=N)N)C(=O)N1CCC[C@H]1C(=O)N[C@@H](CCCNC(=N)N)C(=O)N1CCC[C@H]1C(=O)N[C@@H](CCCNC(=N)N)C(=O)N1CCC[C@H]1C(=O)N[C@@H](CC(C)C)C(=O)N1CCC[C@H]1C(=O)N[C@@H](Cc1ccc(O)cc1)C(=O)N1CCC[C@H]1C(=O)N[C@@H](CCCNC(=N)N)C(=O)N1CCC[C@H]1C(=O)N[C@@H](CSc1ccc2n1[B-](F)(F)[N+]1=CC=CC1=C2)C(=O)O (H-IRPRPPRLPRPRPRPLPYPRPC(X1)-OH)
 |  | Not Active | 8 µM (≈ 15.7 µg/mL) | Not Active | Not Active | 16 µM (≈ 31.4 µg/mL) | Active | Not Active | CC[C@H](C)[C@H](NC(=O)[C@H](CCCNC(=N)N)NC(=O)[C@@H](N)CCCNC(=N)N)C(=O)N[C@@H](CCCNC(=N)N)C(=O)N1CCC[C@H]1C(=O)N[C@@H](CCCNC(=N)N)C(=O)N1CCC[C@H]1C(=O)N1CCC[C@H]1C(=O)N[C@@H](CCCNC(=N)N)C(=O)N[C@@H](CC(C)C)C(=O)N1CCC[C@H]1C(=O)N[C@@H](CCCNC(=N)N)C(=O)N1CCC[C@H]1C(=O)N[C@@H](CSc1ccc2n1[B-](F)(F)[N+]1=CC=CC1=C2)C(=O)O (H-RRIRPRPPRLPRPC(X1)-OH)
 |  | Active |  | Active | Active |  | Active | Active | CC[C@H](C)[C@H](NC(=O)[C@H](CCCNC(=N)N)NC(=O)[C@@H](N)CCCNC(=N)N)C(=O)N[C@@H](CCCNC(=N)N)C(=O)N1CCC[C@H]1C(=O)N[C@@H](CCCNC(=N)N)C(=O)N1CCC[C@H]1C(=O)N1CCC[C@H]1C(=O)N[C@@H](CCCNC(=N)N)C(=O)N[C@@H](CC(C)C)C(=O)N1CCC[C@H]1C(=O)N[C@@H](CCCNC(=N)N)C(=O)N1CCC[C@H]1C(=O)N[C@@H](CCCNC(=N)N)C(=O)N1CCC[C@H]1C(=O)N[C@@H](CCCNC(=N)N)C(=O)N1CCC[C@H]1C(=O)N[C@@H](CC(C)C)C(=O)N1CCC[C@H]1C(=O)N[C@@H](Cc1ccccc1)C(=O)N1CCC[C@H]1C(=O)N[C@@H](CCCNC(=N)N)C(=O)N1CCC[C@H]1C(=O)NCC(=O)N1CCC[C@H]1C(=O)N[C@@H](CCCNC(=N)N)C(=O)N1CCC[C@H]1C(=O)N[C@H](C(=O)N1CCC[C@H]1C(=O)N[C@@H](CCCNC(=N)N)C(=O)N1CCC[C@H]1C(=O)N[C@@H](CC(C)C)C(=O)N1CCC[C@H]1C(=O)N[C@@H](Cc1ccccc1)C(=O)N1CCC[C@H]1C(=O)N[C@@H](CSc1ccc2n1[B-](F)(F)[N+]1=CC=CC1=C2)C(=O)O)[C@@H](C)CC (H-RRIRPRPPRLPRPRPRPLPFPRPGPRPIPRPLPFPC(X1)-OH)
